Reference: patent EP4563149A1, “LURBINECTEDIN, ECUBECTEDIN AND A RELATED COMPOUND FOR USE IN THE TREATMENT OF SKIN CANCERS” (Pharma Mar, S.A., priority 2023, dated 2025)

Key:
all melanoma cells = assay: Cell viability assay (PrestoBlue), summary over all melanoma cells; format: cell-based; conditions: Homo sapiens, read-out: IC50 values
[1] = system: melanoma cell cultures or cell lines; assay: Clonogenic assay; format: cell-based, human; conditions: 48h at IC50 concentrations, then 10 days without drug
Protocol: Based on the cell viability assays conducted above, the efficacy of lurbinectedin, PM14 or Compound IA on melanoma cell proliferation was investigated. Initially, a clonogenic assay was performed. Cells were drug-treated at IC50 concentrations during 48h before seeding 1×10^3 or 2×10^3 cells in 6-well plates without drug, wherein they grew for 10 days to allow for colony formation. Afterwards, cells were fixed for 10min with 4% formaldehyde solution, washed once with PBS and stained with Crystal Violet solution 0.2% for 15 min. The wells were finally washed twice with deionized water, air dried, scanned and analyzed with Fiji software to count the number of colonies.

melanoma cells [2] = assay: Cell proliferation by CellTrace Violet flow cytometry; format: cell-based, human; conditions: IC50 concentrations, compared to DMSO
Protocol: (§1) After 48h of incubation, cells were rinsed and incubated with AnnexinV-APC (BD Biosciences). Cell proliferation and apoptosis were detected on a BD LSRFortessaTM Flow Cytometer. Data were analyzed with FlowJo software. To define slow proliferating or apoptotic cells: it was considered that slow proliferating cells represented the 30% of cells with the highest concentration of CellTrace Violet signal in the DMSO control. […] For apoptotic cells, it was considered the 20% of cells with the highest signal of AnnexinV-APC in the DMSO control.

melanoma cells 501mel = assay: Cell cycle analysis by flow cytometry (PI); format: cell-based, human; conditions: IC50 concentrations
Protocol: For cell cycle analysis, 2×10^6 cells were seeded in 6 well plates. […] After 2 washes with cold PBS, cells were incubated with RNAse A and PI for 1h in the dark, before being analyzed on a BD LSRFortessaTM Flow Cytometer. Data were analysed with FlowJo software.

melanoma cells [3] = assay: Apoptosis by flow cytometry (AnnexinV-APC); format: cell-based, human; conditions: IC50 concentrations, Annexin V-APC
Protocol: as §1

[4] = system: RPB1 (RNA pol II elongation subunit); assay: Immunoblotting of RPB1 in 501mel; format: cell-based, human; conditions: 24h at 5×IC50
Protocol: Cells were washed once with cold PBS, rinsed with a cell scraper, pelleted and resuspended in LSDB 0.5M buffer (0.5M KCI, 50mM Tris HCl pH 7.9, 20% Glycerol, 1% NP40, 1mM DTT, PIC). Afterwards cells were fully disrupted with 3 cycles of heat shock in liquid nitrogen and 37°C water bath and centrifugated 15min at 14,000rpm to pellet cell debris. Ten micrograms of extract were loaded on SDS-PAGE before transfer to nitro-cellulose membranes and immunoblotting.

MM074 melanospheres [5] = assay: Melanosphere viability (CellTiterGlo); format: cell-based, human; conditions: 72h, doses equivalent to 5×IC50
Protocol: (§2) MM074 proliferative/differentiated cell line were seeded (5×10^4 cells) in ultra-low attachment hydrogel-layered 96 well plates in KO DMEM medium supplemented with 20% KSR, AANE, 2 mM Glutamax, Penicillin/Streptomycin and 100 uM Beta-mercaptoethanol. To allow for melanosphere formation, cells were left to grow for 4 days before drug treatment.
To analyze melanosphere viability after drug treatment, cells were treated with CellTiterGlo reagent (Promega) according to the manufacturer's instructions. Luminescence signals were measured with a Centro XS LB 960 microplate reader (Berthold).

MM074 melanospheres [6] = assay: Melanosphere apoptosis (AnnexinV-APC / propidium iodide); format: cell-based, human; conditions: 72h
Protocol: as §2
For apoptosis assays with 3D-grown melanoma cells, TrypLe Select 10x reagent (Gibco) was used to dissociate melanospheres to obtain single-cell suspensions. These cells were incubated with AnnexinV-APC (Biolegend) and Propidium Iodide (PI, Biolegend). With bivariant dot plots, it was distinguished between viable (AnnexinV-/PI-), early apoptotic (AnnexinV+/PI-), late apoptotic (AnnexinV+/PI+) and necrotic cells (AnnexinV-/PI+).

Hermes3A = assay: Cell viability assay (PrestoBlue), 72h; conditions: for IC50: Homo sapiens, Melanocyte, 72 h
Protocol: (§3) Cells were grown at 37°C in 5% CO2 (10% for Hermes 3A) and were regularly checked for mycoplasma contamination. […] Melanoma IGR cell lines (IGR37 and IGR39) were grown in RPMI w/o HEPES (Gibco, Invitrogen) supplemented with 15% FCS and gentamycin.
(§4) To determine the IC50 (half maximal inhibitory concentration) of these cells to various inhibitors, cell viability assays were performed.
(§5) After 72h of treatment with different concentrations of the compounds, cells were treated with PrestoBlue reagent according to the manufacturer's instructions. The absorbance per well was measured with a Cellinsight CX5 microplate reader. Data were analyzed using Prism9 statistical software.

501mel = assay: Cell viability assay (PrestoBlue), 72h; conditions: Homo sapiens
Protocol: (§6) Cells were grown at 37°C in 5% CO2 (10% for Hermes 3A) and were regularly checked for mycoplasma contamination. […] Melanoma cell lines 501mel and SKmel28 were grown in RPMI w/o HEPES (Gibco, Invitrogen) supplemented with 10% FCS and gentamycin. Vemurafenib-resistant cells (501melVemuR and MM074VemuR) were additionally supplemented with 1.5 µM of vemurafenib. Melanoma IGR cell lines (IGR37 and IGR39) were grown in RPMI w/o HEPES (Gibco, Invitrogen) supplemented with 15% FCS and gentamycin.
as §4, §5

MM011 = assay: Cell viability assay (PrestoBlue), 72h; conditions: Homo sapiens
Protocol: as §6, §4, §5

MM074 = assay: Cell viability assay (PrestoBlue), 72h; conditions: Homo sapiens
Protocol: as §6, §4, §5

MM117 = assay: Cell viability assay (PrestoBlue), 72h; conditions: Homo sapiens
Protocol: as §6, §4, §5

SKMEL-28 = assay: Cell viability assay (PrestoBlue), 72h; conditions: Homo sapiens, SK-MEL-28, 72 h
Protocol: as §6, §4, §5

IGR37 [7] = assay: Cell viability assay (PrestoBlue), 72h; conditions: Homo sapiens, IGR-37, 72 h
Protocol: as §6, §4, §5

501mel^VemuR = assay: Cell viability assay (PrestoBlue), 72h; conditions: Homo sapiens
Protocol: (§7) Cells were grown at 37°C in 5% CO2 (10% for Hermes 3A) and were regularly checked for mycoplasma contamination. MM patient-derived short-term melanoma cultures (MM011, MM074, MM117, MM029, MM047, MM099) were grown in HAM-F10 (Gibco, Invitrogen) supplemented with 10% Fetal Calf Serum (FCS), 25 mM HEPES, 5.2 mM GLUTAMAX and penicillin-streptomycin. Melanoma cell lines 501mel and SKmel28 were grown in RPMI w/o HEPES (Gibco, Invitrogen) supplemented with 10% FCS and gentamycin. Vemurafenib-resistant cells (501melVemuR and MM074VemuR) were additionally supplemented with 1.5 µM of vemurafenib. Melanoma IGR cell lines (IGR37 and IGR39) were grown in RPMI w/o HEPES (Gibco, Invitrogen) supplemented with 15% FCS and gentamycin.
as §4, §5

MM074^VemuR = assay: Cell viability assay (PrestoBlue), 72h; conditions: Homo sapiens
Protocol: as §7, §4, §5

MM029 = assay: Cell viability assay (PrestoBlue), 72h; conditions: Homo sapiens
Protocol: as §3, §4, §5

MM047 = assay: Cell viability assay (PrestoBlue), 72h; conditions: Homo sapiens
Protocol: as §3, §4, §5

MM099 = assay: Cell viability assay (PrestoBlue), 72h; conditions: Homo sapiens
Protocol: as §3, §4, §5

IGR37 [8] = assay: Cell viability assay (PrestoBlue), 72h, last line of Table 2; conditions: Homo sapiens, IGR-37, 72 h
Protocol: as §3, §4, §5

IC50 (MM117) [nM]	IC50 (SKMEL-28) [nM]	Structure (SMILES)	cell viability in 3D culture (MM074 melanospheres [5])	IC50 (Hermes3A) [nM]	IC50 (501mel) [nM]	IC50 (MM011) [nM]	IC50 (MM074) [nM]	IC50 (IGR37 [7]) [nM]	IC50 (501mel^VemuR) [nM]	IC50 (MM074^VemuR) [nM]	IC50 (MM029) [nM]	IC50 (MM047) [nM]	IC50 (MM099) [nM]	IC50 (IGR37 [8]) [nM]	further results
> 50	1	CC(C)(C)c1nc(-c2cccc(NS(=O)(=O)c3c(F)cccc3F)c2F)c(-c2ccnc(N)n2)s1 [dabrafenib]	unable to reduce cell viability	> 50	> 50	> 50	4.68	25.3	> 50	> 50	> 50	> 50	> 50	> 50	–
488	> 10000	CCCS(=O)(=O)Nc1ccc(F)c(C(=O)c2c[nH]c3ncc(-c4ccc(Cl)cc4)cc23)c1F [vemurafenib]	–	> 10000	2440	> 10000	225	517	> 10000	> 10000	> 10000	> 10000	> 10000	> 10000	–
10.2	5.12	CC(=O)Nc1cccc(-n2c(=O)n(C3CC3)c(=O)c3c(Nc4ccc(I)cc4F)n(C)c(=O)c(C)c32)c1 [trametinib]	–	> 50	3	> 50	0.51	0.53	> 50	4.65	> 50	> 50	> 50	> 50	–

Structure (SMILES)	IC50 (MM117) [nM]	IC50 (SKMEL-28) [nM]	cell viability in 3D culture (MM074 melanospheres [5])	IC50 (Hermes3A) [nM]	IC50 (501mel) [nM]	IC50 (MM011) [nM]	IC50 (MM074) [nM]	IC50 (IGR37 [7]) [nM]	IC50 (501mel^VemuR) [nM]	IC50 (MM074^VemuR) [nM]	IC50 (MM029) [nM]	IC50 (MM047) [nM]	IC50 (MM099) [nM]	IC50 (IGR37 [8]) [nM]	further results
COc1ccc2[nH]c3c(c2c1)CCN[C@]31CS[C@@H]2c3c(OC(C)=O)c(C)c4c(c3[C@H](COC1=O)N1[C@@H]2[C@H]2c3c(cc(C)c(OC)c3O)C[C@@H]([C@@H]1O)N2C)OCO4 [lurbinectedin]	0.3	1.17	significant cytotoxic effects	2.67	0.37	0.47	1.06	0.5	1.07	1.36	1.28	0.45	0.73	0.41	IC50 (all melanoma cells): 0.3 to 4.73 nM; colony formation (number of colonies) [1]: significant impact; melanoma cell proliferation (melanoma cells [2]): significant inhibition; cell cycle progression (melanoma cells 501mel): notable blockade; apoptosis (melanoma cells [3]): induction of apoptosis; RPB1 (RNA pol II elongation subunit) degradation [4]: minimal; late apoptotic cells positive for Annexin V and propidium iodide (MM074 melanospheres [6]): substantial population of late apoptotic cells; sensitivity of non-cancerous Hermes3A immortalized melanocytes compared with the melanoma cells (Hermes3A; Hermes3A versus melanoma cells): less sensitive
